Data reported in patent publication US20170290852A1, “MICELLE FORMULATIONS OF AMPHOTERICIN B” (Wisconsin Alumni Research Foundation, priority 2016, published 2017).
Values after ≈ are worked out from the molar mass of the structure shown.

What was measured:
[1] = system: K1; assay: Neutropenic mouse model of disseminated candidiasis; assay type: in vivo, ICR/Swiss mice; details: 48 hours; 72 mg/kg 5-FC
[2] = system: bovine red blood cells; details: 5-FC alone, 25-100 μg/ml
[3] = system: C. albicans strain K1; assay: Minimum inhibitory concentration (MIC); assay type: cell-based; details: K1 (Example 6); for 5-FC the concentration inhibiting ≧50% by absorbance
Experimental: (§1) To prepare the inoculation, the fungal strains were cultured for approximately 24 hours on Sabouraud dextrose agar (SDA) plates were diluted to a 0.5 McFarland standard (1-5×10^6 CFU/mL) in sterile normal saline and diluted 100-fold in yeast peptone dextrose (YPD). Inoculum was added to serial dilutions of AmB in 96-well plates, following the microplate dilution method. Plates were sealed with Breathe Easier membranes (Sigma Aldrich, St. Louis, Mo.). ATCC 9763 or K1 was incubated at 30° C. or 37° C., respectively, for 18-20 hours. […] SDA was prepared with 1% peptone, 4% glucose, and 1.5% agar in deionized water. YPD media was prepared with 1% yeast extract, 2% peptone, and 2% glucose in deionized water. Autoclaving was used to sterilize media.
(§2) For 5-FC, the concentration necessary to inhibit ≧50% as determined by absorbance is reported.

[4] = system: C. albicans Gu5 (ATCC MYA-574); assay: Minimum inhibitory concentration (MIC); assay type: cell-based; details: for 5-FC the concentration inhibiting ≧50% by absorbance
Experimental: as §1, §2

[5] = system: C. albicans SC5314 (ATCC MYA-2876); assay: Minimum inhibitory concentration (MIC); assay type: cell-based; details: for 5-FC the concentration inhibiting ≧50% by absorbance
Experimental: as §1, §2

MIC [3]: 64 µg/mL (≈ 496 µM) | MIC [4]: 81 µg/mL (≈ 627 µM) | MIC [5]: 20 µg/mL (≈ 155 µM)
Compound: Nc1nc(=O)[nH]cc1F [5-FC, 5-fluorocytosine]
fungal burden of the control group relative to treated group [1]: 1.2 times | hemolytic activity [2]: < 0.4%
